Measurements taken from PubChem BioAssay (NCI).
Values joined by “and” are separate entries in the source; they are usually repeats but may differ in a detail not shown here. Equal entries are not always repeated.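 These data come from cells grown in 96-well plates and exposed to compound for 48 hours at five concentrations. At the GI50, growth is halved. TGI is the concentration that stops growth completely.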

Assays:
Assay in all cases: DTP human tumour cell line panel, 48 h
SK-MEL-5 melanoma = test system: SK-MEL-5 melanoma
TK-10 renal = test system: TK-10 renal
SK-OV-3 ovarian = test system: SK-OV-3 ovarian
OVCAR-5 ovarian = test system: OVCAR-5 ovarian
NCI/ADR-RES ovarian = test system: NCI/ADR-RES ovarian
CCRF-CEM leukemia = test system: CCRF-CEM leukemia
MDA-MB-231 breast = test system: MDA-MB-231 breast
OVCAR-4 ovarian = test system: OVCAR-4 ovarian
SR leukemia = test system: SR leukemia
UACC-62 melanoma = test system: UACC-62 melanoma

| Compound | GI50 (SK-MEL-5 melanoma) | TGI (SK-MEL-5 melanoma) | GI50 (TK-10 renal) | TGI (TK-10 renal) | GI50 (SK-OV-3 ovarian) | TGI (SK-OV-3 ovarian) | GI50 (OVCAR-5 ovarian) | TGI (OVCAR-5 ovarian) | GI50 (NCI/ADR-RES ovarian) | TGI (NCI/ADR-RES ovarian) | GI50 (CCRF-CEM leukemia) | TGI (CCRF-CEM leukemia) | GI50 (MDA-MB-231 breast) | TGI (MDA-MB-231 breast) | GI50 (OVCAR-4 ovarian) | TGI (OVCAR-4 ovarian) | GI50 (SR leukemia) | TGI (SR leukemia) | GI50 (UACC-62 melanoma) | TGI (UACC-62 melanoma) |
| --- | --- | --- | --- | --- | --- | --- | --- | --- | --- | --- | --- | --- | --- | --- | --- | --- | --- | --- | --- | --- |
| Cc1cnc(NC(=O)Nc2cc(Br)c(C)cc2OC[C@@H]2CNCCO2)cn1 | 1.43 µM and 1.09 µM | 4.22 µM and 2.92 µM | 0.703 µM and 2.18 µM | > 10 µM and 16.6 µM | 0.916 µM and 0.474 µM | > 10 µM and 12.3 µM | 2.1 µM and 1.96 µM | > 10 µM and 13.4 µM | 0.841 µM and 0.679 µM | > 10 µM and 11.7 µM | 0.321 µM and 0.259 µM | 9.48 µM and 1.23 µM | 2.96 µM and 1.48 µM | > 10 µM and 7.39 µM | 5.85 µM and 1.05 µM | > 10 µM and 15.5 µM | 0.306 µM and 0.196 µM | 1.66 µM and 3.72 µM | 1.19 µM | 6.82 µM |
| COc1cc(/C=C2\C(=O)Nc3cc(C)c(O)cc32)cc(OC)c1OC | 2.52 µM | 9.17 µM | 12.8 µM | 40.4 µM | 7.34 µM | 54.1 µM | 13.5 µM | 30.4 µM | 5.01 µM | 48.1 µM | 2.89 µM | 18.3 µM | 3.25 µM | 23.1 µM | 8.23 µM | > 67.7 µM | 0.857 µM | 5.84 µM | 3.82 µM | 16.8 µM |
| COc1ccc(S(=O)(=O)N2CC(C)(C)CN(S(=O)(=O)c3ccc(OC)cc3)C2C(=O)NO)cc1 | – | > 7.63 µM | 19.5 µM | > 20 µM | > 20 µM | > 20 µM | > 20 µM | > 20 µM | > 20 µM | > 20 µM | 1.29 µM | > 16.6 µM | > 16.2 µM | > 20 µM | > 20 µM | > 20 µM | 13.6 µM | > 20 µM | > 19.2 µM | > 20 µM |
| OCc1ccc(-c2ccc(-c3ccc(CO)o3)[se]2)o1 | 34.8 µM | > 100 µM | > 100 µM | > 100 µM | > 100 µM | > 100 µM | 0.629 µM | > 100 µM | > 60.9 µM | > 100 µM | 35.5 µM | > 100 µM | > 83.7 µM | > 100 µM | 35.4 µM | > 100 µM | > 69.2 µM | > 100 µM | 8.72 µM | > 100 µM |
| COc1cc(-c2cc3ncccc3c3nc(N)c4cccnc4c23)cc(OC)c1OC | 0.296 µM | 1.99 µM | 1.15 µM | 9.29 µM | 0.538 µM | 72.5 µM | 4.98 µM | > 100 µM | 0.492 µM | 23.4 µM | 0.481 µM | 30.2 µM | 1.25 µM | > 100 µM | 3.16 µM | > 100 µM | 0.124 µM | 4.97 µM | 0.358 µM | 19.4 µM |
| Cc1ccc(C)c2c1C(O)(C#Cc1ccccc1)c1ccccc1C2(O)C#Cc1ccccc1 (centres undefined) | 1.63 µM | 4.99 µM | 3.68 µM | > 100 µM | 3.44 µM | > 100 µM | 8.39 µM | > 100 µM | 3.63 µM | > 28.9 µM | 2.36 µM | > 25.4 µM | 2.84 µM | > 100 µM | 3.85 µM | > 100 µM | 2.52 µM | > 100 µM | 2.84 µM | > 100 µM |
| CN[C@H]1C=C[C@@H]2/C=C(C)/C=C/[C@@H](C)[C@H]([C@H](C)[C@H](O)[C@@H](C)NC(C)=O)OC(=O)/C=C/C=C(C)\C=C\[C@]2(C)C1 | 0.0049 µM | 0.552 µM | 0.0611 µM and 0.259 µM | > 49 µM | < 0.001 µM | – | 10.3 µM | > 49 µM | 0.44 µM and 0.347 µM | > 49 µM | 6.16 µM | > 49 µM | 0.0049 µM | 9.97 µM | 7.12 µM | > 49 µM | < 0.001 µM and 0.0049 µM | > 49 µM | 0.022 µM | 19.7 µM |
| S=C(Nc1ccc(Br)cc1)Nc1ccc(Br)cc1 | 5.4 µM | > 100 µM | 5.38 µM | > 100 µM | > 100 µM | > 100 µM | > 100 µM | > 100 µM | 4.32 µM | > 100 µM | 6.19 µM | > 100 µM | 25.5 µM | > 100 µM | 7.51 µM | > 100 µM | 6.96 µM | > 100 µM | 3.52 µM | > 100 µM |
| CCCNNC(=O)/C=C/c1ccc(CNCCc2c(C)[nH]c3ccccc23)cc1 | 0.0447 µM | 0.122 µM | 0.00506 µM | 0.133 µM | 0.0357 µM | 0.482 µM | 0.0116 µM | 0.191 µM | 0.169 µM | 2.29 µM | 0.0138 µM | 6.43 µM | 0.0708 µM | 3.74 µM | 0.0525 µM | 6.45 µM | 0.0191 µM | 4.26 µM | 0.0237 µM | 0.0744 µM |
| O=S(=O)(Nc1ccccc1Cl)c1ccc(-c2cnc(C3CC3)o2)cc1 | 0.453 µM | 15.9 µM | 11.8 µM | > 100 µM | 1.23 µM | > 67.7 µM | 2.44 µM | > 100 µM | 0.314 µM | 65.9 µM | 0.388 µM | > 100 µM | 1.92 µM | 84.9 µM | 4.21 µM | > 100 µM | 0.0684 µM | > 55.7 µM | 0.402 µM | 47.6 µM |
| COc1cccc(-c2cc(=O)c3cc(OC)ccc3[nH]2)c1 | – | 2.57 µM | – | 84.9 µM | – | 41.5 µM | 0.528 µM | > 100 µM | – | 0.445 µM | 0.0281 µM | 0.248 µM | – | 4.53 µM and 21.6 µM | – | > 100 µM | – | 0.664 µM | 0.0459 µM | > 100 µM |
| COc1ccc2c(C)cc(N/N=C/c3ccc(OC)c4ccccc34)nc2c1 | – | 30.3 µM | – | 31.8 µM | – | 33.8 µM | – | 29.1 µM | – | 32.7 µM | – | 7.47 µM | – | 17.4 µM | – | 45.1 µM | – | 22.3 µM | – | 28.3 µM |
| COc1ccc(-c2cn[nH]c2-c2cc(OC)c3c(c2)OCO3)cc1 | 0.277 µM | 8.7 µM | 1.51 µM | 63.3 µM | 0.386 µM | 5.45 µM | 1.34 µM | 36.6 µM | 0.12 µM | 27.4 µM | 0.266 µM | 21.3 µM | 0.643 µM | 8.35 µM | 2.15 µM | 62.9 µM | 0.0631 µM | 16.8 µM | 0.397 µM | 14.9 µM |
| Cn1cc(C2=C(c3cn(CCCCN)c4ccccc34)C(=O)NC2=O)c2ccccc21 | > 25 µM | > 25 µM | > 25 µM | > 25 µM | > 25 µM | > 25 µM | > 25 µM | > 25 µM | > 25 µM | > 25 µM | > 25 µM | > 25 µM | > 25 µM | > 25 µM | > 25 µM | > 25 µM | > 25 µM | > 25 µM | > 25 µM | > 25 µM |
| CCCN(CCCC(NC(C)=O)C(=O)NCc1ccccc1)C(=O)N(CCCl)N=O (centres undefined) | – | 37.8 µM | – | 83.4 µM | – | 63.1 µM | – | 64.6 µM | – | > 100 µM | – | 76.8 µM | – | > 100 µM | – | > 85 µM | – | 17.5 µM | – | 12.6 µM |
| CCC12CCCN(Cc3ccccc3)C1c1c([nH]c3ccccc13)C(C(=O)OC)C2 (centres undefined) | – | > 10 µM | – | > 10 µM | – | > 10 µM | – | > 10 µM | – | > 10 µM | – | > 10 µM | – | > 10 µM | – | > 10 µM | – | > 10 µM | – | > 10 µM |
| CCOC(=O)c1sc(-c2ccc(OS(=O)(=O)c3ccc(Br)s3)c(C=O)c2)nc1C | 1.74 µM | 3.18 µM | 2.83 µM | 8.96 µM | 36.4 µM | 97.1 µM | 10 µM | 26.3 µM | 2.96 µM | 12.9 µM | 2.36 µM | 9.16 µM | 2.75 µM | 10.1 µM | 3.06 µM | 9.85 µM | 3.14 µM | > 100 µM | 2.21 µM | 5.97 µM |
| CC(C)(C)C(=O)c1c(C(F)(F)F)n([O-])c2ccccc2[n+]1=O | 0.24 µM | 0.83 µM | 0.896 µM | 2.18 µM | 1.67 µM | 3.07 µM | 0.998 µM | 2.15 µM | 0.571 µM | 2.36 µM | 0.577 µM | 2.34 µM | 0.56 µM | 2.3 µM | 0.6 µM | 2.43 µM | – | 0.209 µM | 1.33 µM | 2.66 µM |
| FC(F)c1nc2ccccc2n1-c1nc(N2CCOCC2)nc(N2CCOCC2)n1 | 0.453 µM and 0.338 µM | 2.11 µM and 2.37 µM | 0.129 µM and 0.205 µM | 0.907 µM and 1.58 µM | 0.175 µM and 0.27 µM | 1.03 µM and 1.94 µM | 0.329 µM and 0.447 µM | > 100 µM | 0.457 µM and 0.496 µM | > 100 µM | 0.495 µM and 0.556 µM | > 100 µM | 0.448 µM and 2.13 µM | – | 0.797 µM and 0.475 µM | 6.87 µM and 5.39 µM | 0.686 µM and 0.578 µM | > 100 µM | 0.0752 µM and 0.233 µM | 0.86 µM and 1.94 µM |
